Measured values as given in publication PMC7915902, “Preclinical Evaluation of [^18F]FACH in Healthy Mice and Piglets: An ^18F-Labeled Ligand for Imaging of Monocarboxylate Transporters with PET” (International Journal of Molecular Sciences, 2021).

Legend:
MCTs [1] = assay: Compartmental kinetic modelling of PET data in piglets; assay type: in vivo, piglet; settings: piglets; for K1 / VT / k2: 1-TCM, control; for BPND: (VT(control)/VT(pre-treated)) − 1; for K1 (representative 1-TCM curve fit) / k2 (representative 1-TCM curve fit): control study, Figure S12
Experimental: (§1) Table 4 includes the results of 1-tissue-compartment kinetic modelling (1-TCM) of [^18F]FACH in the kidney cortex and the liver of the control and pre-treated mouse groups (α-CCA-Na and reference compound). […] The BPND was estimated as the ratio of [VT(control)/VT(pre-treatment)] − 1.
(§2) Kinetic analysis of reconstructed datasets was performed with PMOD software. First, image derived arterial input functions (IDIFs) were obtained from the left ventricle in mice and from an artery close to the kidney in piglet studies. IDIFs were corrected for partial volume effects, plasma fraction from hematocrit values (individually determined for each piglet directly before PET imaging; for mice set to 0.51 according to CD-1 Mouse Hematology sheet from Charles River Laboratories, 2011) and radio-metabolites (measured for piglets, and set to zero for mice). Tri-exponential metabolite-corrected fitted input functions were used for one and two tissue compartment modelling (1-TCM/2-TCM) of time activity curves (TACs) in tissue volumes of interest (VOIs). For both species the specific blood volume was set to 0.15 mL g^−1 in the kidney cortex and 0.128 mL g^−1 in the liver, according to published values.

MCTs [2] = assay: Dynamic PET/MRI in mice with pre-treatment; assay type: in vivo, mouse; settings: mice, PET
Experimental: (§3) The biodistribution of [^18F]FACH in mice was assessed by small animal PET (Nanoscan, Mediso, Budapest, Hungary) with dynamic 60 min emission recordings, followed by T1 weighted GRE MR (TR = 15.0 ms, TE = 2.4 ms, FA = 25°) imaging for anatomical correlations and attenuation correction. The mice (n = 20) weighing 32.2 ± 2.9 g were anaesthetised with 2% isoflurane in 60% oxygen, and placed on a thermostatically heated animal bed. The animals then received i.v. injections of 0.9% saline (control), reference compound (10 mg/kg), or α-CCA-Na (25 mg/kg) ten min prior or 20 min after (displacement studies) [^18F]FACH administration (2.3–8.6 MBq, 0.5–11.2 nmol/kg). List mode PET data were binned as a series of attenuation-corrected sinogram frames (12 × 10 s, 6 × 30 s, 5 × 60 s and 10 × 300 s) and were reconstructed by Ordered Subset Expectation Maximization (OSEM3D) with four iterations, six subsets and a voxel size of 0.4 mm³ (Nucline v2.01, Mediso).
(§4) The analysis of reconstructed datasets was performed with PMOD software (v4.103, PMOD Technologies LLC, Zurich, Switzerland).
(§5) Data are shown in mean ± standard deviation (SD). Group differences were tested by Student’s t-test, with p < 0.05 designated as significant. Area Under the Curves (AUCs) and corresponding 95% confidence intervals (CI95%s) were calculated with GraphPad Prism (v.8.2) following the assumptions described by Gagnon et al..

MCTs [3] = assay type: in vivo, piglet; settings: pig, in vivo
Experimental: The piglets (n = 6) were inititally anaesthetised with intramuscular injections of stresnil and ursotamin, and anaesthesia was maintained with intravenous ursotamin and midazolam, as required. The hematocrit was measured in an ear vein blood sample collected just prior to imaging. Either saline (n = 3) or 25 mg/kg α-CCA-Na (n = 3) in saline was administrated ten min before i.v. administration of [^18F]FACH (261–327 MBq, corresponding to 218–852 pmol/kg) via an ear vein. Imaging was performed with a simultaneous hybrid PET/MR system (mMR Biograph; Siemens, Erlangen, Germany) equipped with dedicated phased-array surface. PET data were reconstructed into a 128 × 128 matrix (voxel size: 1.40 × 1.40 × 2.03 mm^3) using the built-in OSEM3D algorithm with eight iterations, 21 subsets, and a 3-mm Gaussian filter. The attenuation and decay corrected dynamic sequence consisted of 32 frames as follows: 1 × 15, 11 × 30, 1 × 45, 5 × 60, 1 × 90, 5 × 120, 1 × 180, 4 × 240, 1 × 300, 2 × 360 s, whereas activity concentrations in VOIs are represented in units of SUV or percentage of injected dose (%/ID). After completing the dynamic PET recording, piglets were euthanized with an i.v. overdose of T61 (Intervet Deutschland GmbH, Unterschleißheim, Germany) and tissues were sampled for radio-metabolism studies in selected animals.
as §4, §5

MCTs [4] = assay: Compartmental kinetic modelling of PET data in mice; assay type: in vivo, mouse; settings: for K1 / VT / k2: 1-TCM; for K1 (representative 1-TCM curve fit) / k2 (representative 1-TCM curve fit): control study, Figure S12
Experimental: as §1, §2

MCTs [5] = assay: PET displacement study in mice; assay type: in vivo, mouse; settings: mice
Experimental: as §3, §4

- K1 (MCTs [1]; kidney cortex): 0.69 ± 0.11 mL/g/min
- VT (MCTs [1]; kidney cortex): 11.29 ± 1.47 mL/g
- k2 (MCTs [1]; kidney cortex): 0.06 ± 0.01 min⁻¹
- K1 (representative 1-TCM curve fit) (MCTs [1]; kidney cortex): 0.82 mL/g/min
- k2 (representative 1-TCM curve fit) (MCTs [1]; kidney cortex): 0.08 min⁻¹
- K1 (MCTs [1]; liver): 0.64 ± 0.10 mL/g/min
- VT (MCTs [1]; liver): 5.12 ± 1.27 mL/g
- k2 (MCTs [1]; liver): 0.13 ± 0.05 min⁻¹
- K1 (representative 1-TCM curve fit) (MCTs [1]; liver): 0.67 mL/g/min
- k2 (representative 1-TCM curve fit) (MCTs [1]; liver): 0.14 min⁻¹
- peak TAC SUV whole blood (MCTs [2]; left heart ventricle VOI, all three treatment groups): 6.8 ± 1.3
- AUC0–60 min gall bladder (MCTs [2]; vehicle pre-treatment): 481 SUV min
- AUC0–60 min kidney cortex (MCTs [2]; vehicle pre-treatment): 290 SUV min
- AUC0–60 min liver (MCTs [2]; vehicle pre-treatment): 450 SUV min
- AUC0–60 min small intestine (MCTs [2]; vehicle pre-treatment): 99 SUV min
- AUC0–60 min whole blood (MCTs [2]; vehicle pre-treatment): 59 SUV min
- peak TAC SUV kidney cortex (MCTs [3]): 15.3 ± 2.5
- peak TAC SUV kidney medulla (MCTs [3]): 66.1 ± 27.7
- peak TAC SUV liver (MCTs [3]): 13.2 ± 2.7
- K1 (MCTs [4]; kidney cortex, control): 0.13 ± 0.06 mL/g/min
- VT (MCTs [4]; kidney cortex, control): 8.60 ± 4.55 mL/g
- k2 (MCTs [4]; kidney cortex, control): 0.02 ± 0.01 min⁻¹
- K1 (2-TCM) (MCTs [4]; kidney cortex, 2-TCM, control): 0.28±0.24 ml/ccm/min
- VND (2-TCM) (MCTs [4]; kidney cortex, 2-TCM, control): 1.77±2.49 ml/ccm
- k2 (2-TCM) (MCTs [4]; kidney cortex, 2-TCM, control): 1.54 ± 2.43 min⁻¹
- k3 (2-TCM) (MCTs [4]; kidney cortex, 2-TCM, control): 0.77 ± 0.78 min⁻¹
- k4 (2-TCM) (MCTs [4]; kidney cortex, 2-TCM, control): 0.02 ± 0.02 min⁻¹
- K1 (representative 1-TCM curve fit) (MCTs [4]; kidney cortex): 0.16 mL/g/min
- k2 (representative 1-TCM curve fit) (MCTs [4]; kidney cortex): 0.04 min⁻¹
- K1 (MCTs [4]; liver, control): 0.49 ± 0.24 mL/g/min
- VT (MCTs [4]; liver, control): 6.47 ± 2.49 mL/g
- k2 (MCTs [4]; liver, control): 0.08 ± 0.02 min⁻¹
- K1 (representative 1-TCM curve fit) (MCTs [4]; liver): 0.40 mL/g/min
- k2 (representative 1-TCM curve fit) (MCTs [4]; liver): 0.09 min⁻¹
- kidney cortex SUV (MCTs [5]; before injection of α-CCA-Na): 3.50 ± 0.42
- blood SUV (MCTs [5]; pre-injection of α-CCA-Na): 0.74 ± 0.23
SMILES: CCCN(CCC[18F])c1ccc(/C=C(\C#N)C(=O)O)c(OC)c1 [[^18F]FACH, (E)-2-cyano-3-{4-[(3-[^18F]fluoropropyl)(propyl)amino]-2-methoxyphenyl}acrylic acid]
- BPND (MCTs [1]; kidney cortex): 5.2
- BPND (MCTs [1]; liver): 0.18
- BPND (MCTs [4]; liver, (VT(control)/VT(pre-treated)) − 1): 0.04
